Experimental data reported in PubChem BioAssay AID2060499 (Molecular Pharmacology Branch, DTP, NCI, 2025).

Tested on: 777334-354-R2-J4-PDC tumor spheroids with HUVEC/MSC, viability
Test: Anticancer human tumor 777334-354-R2-J4-PDC patient-derived pancreatic adenocarcinoma cell line growth inhibition [GQUAD]
Conditions: for IC50: curve of first compound; for viability, T/C: stronger effect = lower value
Text: DNA G-quadruplex Stabilizer Agents in Combinations in Complex Spheroids
A high-throughput screen of multi-cell type tumor spheroids was designed to identify active combinations of DNA G-quadruplex stabilizer agents and targeted small molecules. Complex spheroids include a stromal component modeled by human endothelial cells (HUVEC) and fibroblasts modeled by human mesenchymal stem cells (MSCs). The concentration ranges selected for each drug and investigational agent were based upon clinically achievable concentrations if the clinical Cmax of the agent was known.
Compounds. The drugs and investigational agents: pidnarulex (CX-5461; NSC782164), APTO-253 (NSC789042), BRACO-19 (NSC847499), peposertib (NSC802822), ceralasertib (NSC780249), elimusertib (NSC800525), camonsertib (NSC841442), AZD-1390 (NSC803789), olaparib (NSC753686), talazoparib (NSC767125), ART-558 (NSC835418), sotorasib (NSC818433), MRTX-1133 (NSC836407), SN-38 (NSC673596), topotecan (NSC609699), etoposide (NSC141540), doxorubicin (NSC123127), gemcitabine (NSC613327), 5-fluorouracil (NSC19893), paclitaxel (NSC125973), vemurafenib (NSC761431), panobinostat (NSC761190), R-306465 (JNJ-16241199; NSC773264), adavosertib (NSC754352), TP-3654 (NSC805149), carboplatin (NSC241240), KSQ-4279 (NSC840948), and staurosporine (NSC755774) were obtained from the National Cancer Institute (NCI) Developmental Therapeutics Program Chemical Repository (34). The FDA-approved anticancer drug set is available from the NCI Developmental Therapeutics Program. […] The stock solutions were prepared in dimethyl sulfoxide (DMSO, Sigma-Aldrich, St. Louis, MO, cat. D2650) at 800-fold the tested concentration and stored at -70 degrees C prior to their use. All drugs and investigational agents were tested over a range starting from a high concentration at or near the clinical Cmax and decreasing in half-log increments. If the clinical Cmax for an agent had not been determined, the highest concentration tested was 10 microM.
2.3 Cell Culture. All cells were maintained in an incubator at 37 degrees C and 5% CO2 with 95% humidity. The PDC lines were cultured according to standard operating procedures established by the NCI PDMR. All PDCs were thawed and cultured in Matrigel-coated flasks prepared with a working solution of 1X Ham's F-12 nutrient mix, without supplementation (Invitrogen, cat. 11765054), 100 U/mL penicillin-streptomycin (Invitrogen, cat. 15140122), and 2.5% Matrigel (Corning Inc., cat. 354248) for the first three passages. The 857933-349-R-J2-PDC line was cultured in 6C/Colon 1B media, which includes advanced DMEM/F-12 (Thermo Fisher Scientific, cat. 12634028), 10 mM HEPES (Thermo Fisher Scientific, cat. 15630080), 1X GlutaMAX supplement (Thermo Fisher Scientific, cat. 35050061), 0.1 mg/mL primocin (InvivoGen, cat. ant-pm-2), 10% defined fetal bovine serum, heat inactivated (HyClone Laboratories Inc., cat. SH30070.03HI), 50% L-WRN conditioned media (ATCC, cat. CRL-3276), 1.25 mM N-Acetyl-L-cysteine (Sigma-Aldrich, cat. A9165), 10 mM nicotinamide (Sigma-Aldrich, cat. N0636), 1X B-27 supplement (Thermo Fisher Scientific, cat. 17504044), 1X N-2 supplement (Thermo Fisher Scientific, cat. 17502048), 10 microM Y-27632 dihydrochloride (Tocris Bioscience, cat. 1254), and 50 ng/mL human EGF recombinant protein (Thermo Fisher Scientific, cat. PHG0311). The 485176-168-R4-J1-PDC line was cultured in Panc media, which includes all 6C/Colon 1B media components plus 100 ng/mL human FGF-10 (Thermo Fisher Scientific, cat. 100-26), 500 nM SB-431542 (Selleckchem, cat. S1067), and gastrin (Tocris, cat. 3006).
[…]

[1] = second compound 0.0316 µM, first compound 0.0316 µM
[2] = second compound 0.0316 µM, first compound 0.1 µM
[3] = second compound 0.0316 µM, first compound 0.316 µM
[4] = second compound 0.0316 µM, first compound 1 µM
[5] = second compound 0.0316 µM, first compound 3.16 µM
[6] = second compound 0.0316 µM, first compound 10 µM
[7] = second compound 0.1 µM, first compound 0.0316 µM
[8] = second compound 0.1 µM, first compound 0.1 µM
[9] = second compound 0.1 µM, first compound 0.316 µM
[10] = second compound 0.1 µM, first compound 1 µM
[11] = second compound 0.1 µM, first compound 3.16 µM
[12] = second compound 0.1 µM, first compound 10 µM
[13] = second compound 0.316 µM, first compound 0.0316 µM
[14] = second compound 0.316 µM, first compound 0.1 µM
[15] = second compound 0.316 µM, first compound 0.316 µM
[16] = second compound 0.316 µM, first compound 1 µM
[17] = second compound 0.316 µM, first compound 3.16 µM
[18] = second compound 0.316 µM, first compound 10 µM
[19] = second compound 1 µM, first compound 0.0316 µM
[20] = second compound 1 µM, first compound 0.1 µM
[21] = second compound 1 µM, first compound 0.316 µM
[22] = second compound 1 µM, first compound 1 µM
[23] = second compound 1 µM, first compound 3.16 µM
[24] = second compound 1 µM, first compound 10 µM
[25] = second compound 3.16 µM, first compound 0.0316 µM
[26] = second compound 3.16 µM, first compound 0.1 µM
[27] = second compound 3.16 µM, first compound 0.316 µM
[28] = second compound 3.16 µM, first compound 1 µM
[29] = second compound 3.16 µM, first compound 3.16 µM
[30] = second compound 3.16 µM, first compound 10 µM
[31] = second compound 10 µM, first compound 0.0316 µM
[32] = second compound 10 µM, first compound 0.1 µM
[33] = second compound 10 µM, first compound 0.316 µM
[34] = second compound 10 µM, first compound 1 µM
[35] = second compound 10 µM, first compound 3.16 µM
[36] = second compound 10 µM, first compound 10 µM
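Further: spheroids exposed to compounds for 7 days before readout.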

SMILES: C=CC(=O)N1CCN(c2nc(=O)n(-c3c(C)ccnc3C(C)C)c3nc(-c4c(O)cccc4F)c(F)cc23)C(C)C1 (stereo unspecified) + CN(C)c1ccc(Nc2c3ccc(NC(=O)CCN4CCCC4)cc3nc3cc(NC(=O)CCN4CCCC4)ccc23)cc1
- IC50 (second compound 0.0316 µM): > 10 µM
- IC50 (second compound 0.1 µM): > 10 µM
- IC50 (second compound 0.316 µM): > 10 µM
- IC50 (second compound 1 µM): > 10 µM
- IC50 (second compound 3.16 µM): > 10 µM
- IC50 (second compound 10 µM): > 10 µM
- viability, T/C [1]: 102%
- viability, T/C [2]: 97%
- viability, T/C [3]: 115%
- viability, T/C [4]: 100%
- viability, T/C [5]: 116%
- viability, T/C [6]: 118%
- viability, T/C [7]: 89.5%
- viability, T/C [8]: 95.1%
- viability, T/C [9]: 104%
- viability, T/C [10]: 128%
- viability, T/C [11]: 120%
- viability, T/C [12]: 107%
- viability, T/C [13]: 98.2%
- viability, T/C [14]: 109%
- viability, T/C [15]: 103%
- viability, T/C [16]: 113%
- viability, T/C [17]: 106%
- viability, T/C [18]: 109%
- viability, T/C [19]: 92.8%
- viability, T/C [20]: 86.7%
- viability, T/C [21]: 94.2%
- viability, T/C [22]: 105%
- viability, T/C [23]: 115%
- viability, T/C [24]: 97.7%
- viability, T/C [25]: 84.6%
- viability, T/C [26]: 87.2%
- viability, T/C [27]: 90.5%
- viability, T/C [28]: 107%
- viability, T/C [29]: 112%
- viability, T/C [30]: 95%
- viability, T/C [31]: 76.7%
- viability, T/C [32]: 76.3%
- viability, T/C [33]: 84%
- viability, T/C [34]: 90.5%
- viability, T/C [35]: 99.5%
- viability, T/C [36]: 75.5%

SMILES: Cc1cccc(N(C)C(=O)C2C(O)CCN2c2nc(C)cc(C(F)(F)F)c2C#N)c1 (stereo unspecified) + CN(C)c1ccc(Nc2c3ccc(NC(=O)CCN4CCCC4)cc3nc3cc(NC(=O)CCN4CCCC4)ccc23)cc1
- IC50 (second compound 0.0316 µM): > 10 µM
- IC50 (second compound 0.1 µM): > 10 µM
- IC50 (second compound 0.316 µM): > 10 µM
- IC50 (second compound 1 µM): > 10 µM
- IC50 (second compound 3.16 µM): > 10 µM
- IC50 (second compound 10 µM): 10 µM
- viability, T/C [1]: 89.3%
- viability, T/C [2]: 87.3%
- viability, T/C [3]: 101%
- viability, T/C [4]: 87.2%
- viability, T/C [5]: 93.2%
- viability, T/C [6]: 89.7%
- viability, T/C [7]: 87.1%
- viability, T/C [8]: 93.3%
- viability, T/C [9]: 85.1%
- viability, T/C [10]: 93.1%
- viability, T/C [11]: 95.2%
- viability, T/C [12]: 90.9%
- viability, T/C [13]: 95.3%
- viability, T/C [14]: 79.1%
- viability, T/C [15]: 94.8%
- viability, T/C [16]: 89.1%
- viability, T/C [17]: 106%
- viability, T/C [18]: 88.5%
- viability, T/C [19]: 90.7%
- viability, T/C [20]: 82.5%
- viability, T/C [21]: 76.6%
- viability, T/C [22]: 84.1%
- viability, T/C [23]: 96.7%
- viability, T/C [24]: 81.8%
- viability, T/C [25]: 77%
- viability, T/C [26]: 71.2%
- viability, T/C [27]: 85.1%
- viability, T/C [28]: 75.3%
- viability, T/C [29]: 80.1%
- viability, T/C [30]: 80.6%
- viability, T/C [31]: 73.7%
- viability, T/C [32]: 79%
- viability, T/C [33]: 69.9%
- viability, T/C [34]: 71.7%
- viability, T/C [35]: 62.8%
- viability, T/C [36]: 50%

SMILES: Cn1ncnc1[C@H]1c2n[nH]c(=O)c3cc(F)cc(c23)N[C@@H]1c1ccc(F)cc1 + CN(C)c1ccc(Nc2c3ccc(NC(=O)CCN4CCCC4)cc3nc3cc(NC(=O)CCN4CCCC4)ccc23)cc1
- IC50 (second compound 0.0316 µM): > 0.316 µM
- IC50 (second compound 0.1 µM): > 0.316 µM
- IC50 (second compound 0.316 µM): > 0.316 µM
- IC50 (second compound 1 µM): > 0.316 µM
- IC50 (second compound 3.16 µM): > 0.316 µM
- IC50 (second compound 10 µM): > 0.316 µM
- viability, T/C (second compound 0.0316 µM, first compound 0.000999 µM): 108%
- viability, T/C (second compound 0.0316 µM, first compound 0.00316 µM): 89.9%
- viability, T/C (second compound 0.0316 µM, first compound 0.00999 µM): 87.1%
- viability, T/C [1]: 95.8%
- viability, T/C (second compound 0.0316 µM, first compound 0.0999 µM): 92.2%
- viability, T/C [3]: 79.7%
- viability, T/C (second compound 0.1 µM, first compound 0.000999 µM): 98.7%
- viability, T/C (second compound 0.1 µM, first compound 0.00316 µM): 85.4%
- viability, T/C (second compound 0.1 µM, first compound 0.00999 µM): 99%
- viability, T/C [7]: 88.6%
- viability, T/C (second compound 0.1 µM, first compound 0.0999 µM): 79.6%
- viability, T/C [9]: 81.2%
- viability, T/C (second compound 0.316 µM, first compound 0.000999 µM): 94%
- viability, T/C (second compound 0.316 µM, first compound 0.00316 µM): 87.4%
- viability, T/C (second compound 0.316 µM, first compound 0.00999 µM): 93.1%
- viability, T/C [13]: 87.9%
- viability, T/C (second compound 0.316 µM, first compound 0.0999 µM): 88.5%
- viability, T/C [15]: 70.5%
- viability, T/C (second compound 1 µM, first compound 0.000999 µM): 103%
- viability, T/C (second compound 1 µM, first compound 0.00316 µM): 86.6%
- viability, T/C (second compound 1 µM, first compound 0.00999 µM): 85.5%
- viability, T/C [19]: 85.5%
- viability, T/C (second compound 1 µM, first compound 0.0999 µM): 82.5%
- viability, T/C [21]: 69.5%
- viability, T/C (second compound 3.16 µM, first compound 0.000999 µM): 73.5%
- viability, T/C (second compound 3.16 µM, first compound 0.00316 µM): 72.7%
- viability, T/C (second compound 3.16 µM, first compound 0.00999 µM): 81.6%
- viability, T/C [25]: 89.9%
- viability, T/C (second compound 3.16 µM, first compound 0.0999 µM): 83.1%
- viability, T/C [27]: 70.9%
- viability, T/C (second compound 10 µM, first compound 0.000999 µM): 76.2%
- viability, T/C (second compound 10 µM, first compound 0.00316 µM): 74.9%
- viability, T/C (second compound 10 µM, first compound 0.00999 µM): 80.6%
- viability, T/C [31]: 77.6%
- viability, T/C (second compound 10 µM, first compound 0.0999 µM): 82.2%
- viability, T/C [33]: 66.1%
